Data on 18 molecules can be found in patent publication US9175003B2, “Substituted azoanthracene derivatives and intermediates for preparation thereof” (TransTech Pharma, LLC, priority 2009, dated 2015).

Molecules are shown by their SMILES.

This experiment deals with human GLP-1 receptor (Homo sapiens (Human), UniProt P43220). The note with it: read-out: Mean EC50; cAMP, HTRF detection, 30 min at 37° C., HEK-293 cells expressing cloned human GLP-1 receptor. In general terms: In TR-FRET formats the signal depends on donor and acceptor labels being close together.
Chain of human GLP-1 receptor (P43220 24-463): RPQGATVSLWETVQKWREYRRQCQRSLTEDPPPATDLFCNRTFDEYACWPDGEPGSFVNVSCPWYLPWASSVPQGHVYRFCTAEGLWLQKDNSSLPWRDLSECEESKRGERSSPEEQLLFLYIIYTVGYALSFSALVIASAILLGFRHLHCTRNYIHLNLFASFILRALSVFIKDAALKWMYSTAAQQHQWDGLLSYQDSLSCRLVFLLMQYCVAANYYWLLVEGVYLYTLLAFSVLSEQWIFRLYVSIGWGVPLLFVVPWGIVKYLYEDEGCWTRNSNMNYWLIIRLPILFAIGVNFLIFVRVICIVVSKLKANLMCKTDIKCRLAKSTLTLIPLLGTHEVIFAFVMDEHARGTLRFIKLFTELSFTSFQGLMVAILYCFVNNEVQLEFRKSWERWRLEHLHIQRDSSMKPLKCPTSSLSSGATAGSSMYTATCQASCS
In the case of `Cc1nccc(-c2ccc(C[C@H](NC(=O)[C@@H]3Cc4cc5c(cc4CN3C(=O)NC3(C)CCC3)O[C@@H](c3ccc(OCc4ccc(Cl)c(Cl)c4)cc3)CO5)C(=O)O)cc2)c1C` [Example 320, (S)-2-{[(3S,8S)-3-[4-(3,4-Dichloro-benzyloxy)-phenyl]-7-(1-methyl-cyclobutylcarbamoyl)-2,3,6,7,8,9-hexahydro-[1,4]dioxino[2,3-g]isoquinoline-8-carbonyl]-amino}-3-[4-(2,3-dimethyl-pyridin-4-yl)-phenyl]-propionic acid], the EC50 (commonly the midpoint of the concentration-response curve) is 45 nM.

As for `Cc1nccc(-c2ccc(C[C@H](NC(=O)[C@@H]3Cc4cc5c(cc4CN3C(=O)NC(C)(C)c3ccccc3)O[C@@H](c3ccc(OCc4ccc(Cl)c(Cl)c4)cc3)CO5)C(=O)O)cc2)c1C` [Example 323, (S)-2-{[(3S,8S)-3-[4-(3,4-Dichloro-benzyloxy)-phenyl]-7-(1-methyl-1-phenyl-ethylcarbamoyl)-2,3,6,7,8,9-hexahydro-[1,4]dioxino[2,3-g]isoquinoline-8-carbonyl]-amino}-3-[4-(2,3-dimethyl-pyridin-4-yl)-phenyl]-propionic acid], the EC50 is 178 nM.

Turning to `Cc1nccc(-c2ccc(C[C@H](NC(=O)[C@@H]3Cc4cc5c(cc4CN3C(=O)c3ccn(C)n3)O[C@@H](c3ccc(OCc4ccc(Cl)c(Cl)c4)cc3)CO5)C(=O)O)cc2)c1C` [Example 324, (S)-2-{[(3S,8S)-3-[4-(3,4-Dichloro-benzyloxy)-phenyl]-7-(1-methyl-1H-pyrazole-3-carbonyl)-2,3,6,7,8,9-hexahydro-[1,4]dioxino[2,3-g]isoquinoline-8-carbonyl]-amino}-3-[4-(2,3-dimethyl-pyridin-4-yl)-phenyl]-propionic acid], the EC50 was found to be 126 nM.

As to `Cc1ccc(C(=O)N2Cc3cc4c(cc3C[C@H]2C(=O)N[C@@H](Cc2ccc(-c3ccnc(C)c3C)cc2)C(=O)O)OC[C@H](c2ccc(OCc3ccc(Cl)c(Cl)c3)cc2)O4)s1` [Example 329, (S)-2-{[(3S,8S)-3-[4-(3,4-dichloro-benzyloxy)-phenyl]-7-(5-methyl-thiophene-2-carbonyl)-2,3,6,7,8,9-hexahydro-[1,4]dioxino[2,3-g]isoquinoline-8-carbonyl]-amino}-3-[4-(2,3-dimethyl-pyridin-4-yl)-phenyl]-propionic acid], the EC50 was determined as 81 nM.

For the molecule `Cc1nccc(-c2ccc(C[C@H](NC(=O)[C@@H]3Cc4cc5c(cc4CN3C(=O)c3nc[nH]n3)O[C@@H](c3ccc(OCc4ccc(Cl)c(Cl)c4)cc3)CO5)C(=O)O)cc2)c1C` [Example 332, (S)-2-{[(3S,8S)-3-[4-(3,4-Dichloro-benzyloxy)-phenyl]-7-(1H-[1,2,4]triazole-3-carbonyl)-2,3,6,7,8,9-hexahydro-[1,4]dioxino[2,3-g]isoquinoline-8-carbonyl]-amino}-3-[4-(2,3-dimethyl-pyridin-4-yl)-phenyl]-propionic acid], the EC50 came out at 66 nM.

Consider `Cc1nccc(-c2ccc(C[C@H](NC(=O)[C@@H]3Cc4cc5c(cc4CN3C(=O)C3CNC(=O)N3)O[C@@H](c3ccc(OCc4ccc(Cl)c(Cl)c4)cc3)CO5)C(=O)O)cc2)c1C` (stereo partly drawn) [Example 333, (S)-2-{[(3S,8S)-3-[4-(3,4-Dichloro-benzyloxy)-phenyl]-7-(2-oxo-imidazolidine-4-carbonyl)-2,3,6,7,8,9-hexahydro-[1,4]dioxino[2,3-g]isoquinoline-8-carbonyl]-amino}-3-[4-(2,3-dimethyl-pyridin-4-yl)-phenyl]-propionic acid], for which the EC50 was 195 nM.

In the case of `Cc1nccc(Oc2ccc(C[C@H](NC(=O)[C@@H]3Cc4cc5c(cc4CN3C(=O)N[C@@H](C)c3ccccc3)O[C@@H](c3ccc(OCc4ccc(Cl)c(Cl)c4)cc3)CO5)C(=O)O)cc2)c1C` [Example 335, (S)-2-{[(3S,8S)-3-[4-(3,4-Dichloro-benzyloxy)-phenyl]-7-((S)-1-phenyl-ethylcarbamoyl)-2,3,6,7,8,9-hexahydro-[1,4]dioxino[2,3-g]isoquinoline-8-carbonyl]-amino}-3-[4-(2,3-dimethyl-pyridin-4-yloxy)-phenyl]-propionic acid], the EC50 was 115 nM.

For `Cc1nccc(Oc2ccc(C[C@H](NC(=O)[C@@H]3Cc4cc5c(cc4CN3C(=O)N[C@H](C)c3ccc(F)cc3)O[C@@H](c3ccc(OCc4ccc(Cl)c(Cl)c4)cc3)CO5)C(=O)O)cc2)c1C` [Example 337, (S)-2-({(3S,8S)-3-[4-(3,4-Dichloro-benzyloxy)-phenyl]-7-[(R)-1-(4-fluoro-phenyl)-ethylcarbamoyl]-2,3,6,7,8,9-hexahydro-[1,4]dioxino[2,3-g]isoquinoline-8-carbonyl}-amino)-3-[4-(2,3-dimethyl-pyridin-4-yloxy)-phenyl]-propionic acid], the EC50 was 145 nM.

Consider `Cc1ccccc1NC(=O)N1Cc2cc3c(cc2C[C@H]1C(=O)N[C@@H](Cc1ccc(Oc2ccnc(C)c2C)cc1)C(=O)O)OC[C@H](c1ccc(OCc2ccc(Cl)c(Cl)c2)cc1)O3` [Example 338, (S)-2-({(3S,8S)-3-[4-(3,4-Dichloro-benzyloxy)-phenyl]-7-o-tolylcarbamoyl-2,3,6,7,8,9-hexahydro-[1,4]dioxino[2,3-g]isoquinoline-8-carbonyl}-amino)-3-[4-(2,3-dimethyl-pyridin-4-yloxy)-phenyl]-propionic acid], for which the EC50 is 377 nM.

Turning to `Cc1nccc(Oc2ccc(C[C@H](NC(=O)[C@@H]3Cc4cc5c(cc4CN3C(=O)NC(C)C)O[C@@H](c3ccc(OCc4ccc(Cl)c(Cl)c4)cc3)CO5)C(=O)O)cc2)c1C` [Example 342, (S)-2-({(3S,8S)-3-[4-(3,4-Dichloro-benzyloxy)-phenyl]-7-isopropylcarbamoyl-2,3,6,7,8,9-hexahydro-[1,4]dioxino[2,3-g]isoquinoline-8-carbonyl}-amino)-3-[4-(2,3-dimethyl-pyridin-4-yloxy)-phenyl]-propionic acid], the EC50 was found to be 204 nM.

As to `Cc1nccc(Oc2ccc(C[C@H](NC(=O)[C@@H]3Cc4cc5c(cc4CN3C(=O)NC(C)(C)C)O[C@@H](c3ccc(OCc4ccc(Cl)c(Cl)c4)cc3)CO5)C(=O)O)cc2)c1C` [Example 343, (S)-2-({(3S,8S)-7-tert-Butylcarbamoyl-3-[4-(3,4-dichloro-benzyloxy)-phenyl]-2,3,6,7,8,9-hexahydro-[1,4]dioxino[2,3-g]isoquinoline-8-carbonyl}-amino)-3-[4-(2,3-dimethyl-pyridin-4-yloxy)-phenyl]-propionic acid], the EC50 stood at 124 nM.

As for `Cc1nccc(Oc2ccc(C[C@H](NC(=O)[C@@H]3Cc4cc5c(cc4CN3C(=O)NC3CCCCC3)O[C@@H](c3ccc(OCc4ccc(Cl)c(Cl)c4)cc3)CO5)C(=O)O)cc2)c1C` [Example 344, (S)-2-({(3S,8S)-7-Cyclohexylcarbamoyl-3-[4-(3,4-dichloro-benzyloxy)-phenyl]-2,3,6,7,8,9-hexahydro-[1,4]dioxino[2,3-g]isoquinoline-8-carbonyl}-amino)-3-[4-(2,3-dimethyl-pyridin-4-yloxy)-phenyl]-propionic acid], the EC50 was found to be 271 nM.

`Cc1cccc(NC(=O)N2Cc3cc4c(cc3C[C@H]2C(=O)N[C@@H](Cc2ccc(Oc3ccnc(C)c3C)cc2)C(=O)O)OC[C@H](c2ccc(OCc3ccc(Cl)c(Cl)c3)cc2)O4)c1` [Example 345, (S)-2-({(3S,8S)-3-[4-(3,4-Dichloro-benzyloxy)-phenyl]-7-m-tolylcarbamoyl-2,3,6,7,8,9-hexahydro-[1,4]dioxino[2,3-g]isoquinoline-8-carbonyl}-amino)-3-[4-(2,3-dimethyl-pyridin-4-yloxy)-phenyl]-propionic acid]: the EC50 amounted to 255 nM.

In the case of `Cc1nccc(Oc2ccc(C[C@H](NC(=O)[C@@H]3Cc4cc5c(cc4CN3C(=O)NC3CCC3)O[C@@H](c3ccc(OCc4ccc(Cl)c(Cl)c4)cc3)CO5)C(=O)O)cc2)c1C` [Example 347, (S)-2-({(3S,8S)-7-Cyclobutylcarbamoyl-3-[4-(3,4-dichloro-benzyloxy)-phenyl]-2,3,6,7,8,9-hexahydro-[1,4]dioxino[2,3-g]isoquinoline-8-carbonyl}-amino)-3-[4-(2,3-dimethyl-pyridin-4-yloxy)-phenyl]-propionic acid], the EC50 stood at 315 nM.

As to `Cc1nccc(Oc2ccc(C[C@H](NC(=O)[C@@H]3Cc4cc5c(cc4CN3C(=O)NC(C)(C)c3ccccc3)O[C@@H](c3ccc(OCc4ccc(Cl)c(Cl)c4)cc3)CO5)C(=O)O)cc2)c1C` [Example 348, (S)-2-{[(3S,8S)-3-[4-(3,4-Dichloro-benzyloxy)-phenyl]-7-(1-methyl-1-phenyl-ethylcarbamoyl)-2,3,6,7,8,9-hexahydro-[1,4]dioxino[2,3-g]isoquinoline-8-carbonyl]-amino}-3-[4-(2,3-dimethyl-pyridin-4-yloxy)-phenyl]-propionic acid], the EC50 is 262 nM.

For the molecule `CCC(C)(C)NC(=O)N1Cc2cc3c(cc2C[C@H]1C(=O)N[C@@H](Cc1ccc(Oc2ccnc(C)c2C)cc1)C(=O)O)OC[C@H](c1ccc(OCc2ccc(Cl)c(Cl)c2)cc1)O3` [Example 350, (S)-2-{[(3S,8S)-3-[4-(3,4-Dichloro-benzyloxy)-phenyl]-7-(1,1-dimethyl-propylcarbamoyl)-2,3,6,7,8,9-hexahydro-[1,4]dioxino[2,3-g]isoquinoline-8-carbonyl]-amino}-3-[4-(2,3-dimethyl-pyridin-4-yloxy)-phenyl]-propionic acid], the EC50 was found to be 212 nM.

As for `Cc1nccc(Oc2ccc(C[C@H](NC(=O)[C@@H]3Cc4cc5c(cc4CN3C(=O)NC3(C)CCC3)O[C@@H](c3ccc(OCc4ccc(Cl)c(Cl)c4)cc3)CO5)C(=O)O)cc2)c1C` [Example 351, (S)-2-{[(3S,8S)-3-[4-(3,4-Dichloro-benzyloxy)-phenyl]-7-(1-methyl-cyclobutylcarbamoyl)-2,3,6,7,8,9-hexahydro-[1,4]dioxino[2,3-g]isoquinoline-8-carbonyl]-amino}-3-[4-(2,3-dimethyl-pyridin-4-yloxy)-phenyl]-propionic acid], the EC50 is 109 nM.

As to `Cc1nccc(Oc2ccc(C[C@H](NC(=O)[C@@H]3Cc4cc5c(cc4CN3C(=O)NC3CCC(F)(F)CC3)O[C@@H](c3ccc(OCc4ccc(Cl)c(Cl)c4)cc3)CO5)C(=O)O)cc2)c1C` [Example 352, (S)-2-{[(3S,8S)-3-[4-(3,4-Dichloro-benzyloxy)-phenyl]-7-(4,4-difluoro-cyclohexylcarbamoyl)-2,3,6,7,8,9-hexahydro-[1,4]dioxino[2,3-g]isoquinoline-8-carbonyl]-amino}-3-[4-(2,3-dimethyl-pyridin-4-yloxy)-phenyl]-propionic acid], the EC50 came out at 338 nM.
